Test results published in US4968455A, “Tris(triorganotin) esters of trimeric fatty acids” (Schering Aktiengesellschaft, priority 1984, dated 1990).

Key:
Proteus vulgaris = test: Overlay test, zones of inhibition, Proteus vulgaris; assay type: cell-based; conditions: two days at 37° C.
[1] = Water solubility in tap water (one week stirring, chloroform extraction, tin by atomic absorption spectroscopy); assay type: physicochemical; conditions: products of Examples 1 and 2 based on 100%, 10080 min
Description: 1 g of the substance to be tested was mixed in a beaker with 1 liter of tap water by stirring for one week. After settling and decanting, the organotin compounds dissolved in the water were extracted with chloroform. The tin concentrations were determined by atomic absorption spectroscopy.

Bacillus subtilis = test: Overlay test, zones of inhibition, Bacillus subtilis; assay type: cell-based; conditions: two days at 37° C.
[2] = Evaporation behavior: weight loss after one week storage in a circulating-air dryer at 65° C.; assay type: physicochemical; conditions: products of Examples 1 and 2 based on 100%
Description: (§1) Weight losses were determined after one week storage in a circulating-air dryer at 65° C. and tests with a thermobalance (onset of weight loss, and weight loss at 350° C.) were performed.
(§2) The exact initial weight of the specimens (about 2 g) in glass Petri dishes (about 10 cm in diameter) is determined and the weight loss after treatment is determined by reweighing.

[3] = Thermal stability, one hour treatment at 180° C. in open glass vessels; assay type: physicochemical; conditions: tributyltin content not determinable
Description: After prior methylation, the content of tributyltin compounds after a one hour treatment at 180° C. in open glass vessels was determined by gas chromatography.

Bacillus mesentericus = test: Overlay test, zones of inhibition, Bacillus mesentericus; assay type: cell-based; conditions: two days at 37° C.
[4] = Evaporation behavior: thermobalance tests; assay type: physicochemical; conditions: products of Examples 1 and 2 based on 100%
Description: as §1, §2

[5] = 0.10 wt. % tin (impregnating solution: TBTO 0.25; TBTL, TBTN 0.5; Ex. 1 1.0; Ex. 2 1.1 wt. %)
[6] = 0.16 wt. % tin (impregnating solution: TBTO 0.4; TBTL, TBTN 0.8; Ex. 1 1.65; Ex. 2 1.7 wt. %)
[7] = 0.24 wt. % tin (impregnating solution: TBTO 0.6; TBTL, TBTN 1.2; Ex. 1 2.45; Ex. 2 2.6 wt. %)
[8] = 0.40 wt. % tin (impregnating solution: TBTO 1.0; TBTL, TBTN 2.0; Ex. 1 4.1; Ex. 2 4.3 wt. %)

## CCC[CH2][Sn]([CH2]CCC)([CH2]CCC)[O][Sn]([CH2]CCC)([CH2]CCC)[CH2]CCC [TBTO, tri-n-butyltin oxide]
Proteus vulgaris; [5]
  Zones of inhibition about the specimens, Proteus vulgaris: 3 cm^2
Proteus vulgaris; [6]
  Zones of inhibition about the specimens, Proteus vulgaris: 6 cm^2
Proteus vulgaris; [7]
  Zones of inhibition about the specimens, Proteus vulgaris: 9 cm^2
Proteus vulgaris; [8]
  Zones of inhibition about the specimens, Proteus vulgaris: 12 cm^2
[1]
  Water solubility: 24.0 mg/liter of water
Bacillus subtilis; [5]
  Zones of inhibition about the specimens, Bacillus subtilis: 6 cm^2
Bacillus subtilis; [6]
  Zones of inhibition about the specimens, Bacillus subtilis: 13 cm^2
Bacillus subtilis; [7]
  Zones of inhibition about the specimens, Bacillus subtilis: 18 cm^2
Bacillus subtilis; [8]
  Zones of inhibition about the specimens, Bacillus subtilis: 20 cm^2
[2]
  Weight loss after 7 days at 65° C.: 27.3%
[3]
  weight loss (1 hour at 180° C.): 98%
Bacillus mesentericus; [5]
  Zones of inhibition about the specimens, Bacillus mesentericus: 5 cm^2
Bacillus mesentericus; [6]
  Zones of inhibition about the specimens, Bacillus mesentericus: 8 cm^2
Bacillus mesentericus; [7]
  Zones of inhibition about the specimens, Bacillus mesentericus: 14 cm^2
Bacillus mesentericus; [8]
  Zones of inhibition about the specimens, Bacillus mesentericus: 20 cm^2
[4]; 350° C.
  Thermobalance: Weight loss at 350° C.: 80%
[4]
  Thermobalance: Onset of weight loss: 75 °C
